How the values were obtained:
insect or tick = test: Duration of repellency of 2-undecanone alone (statement, no method); settings: unformulated
skin of human subjects = test: Human repeat insult patch test for skin irritation and sensitization; assay type: in vivo; settings: positive control
Experimental: To determine the irritation and sensitization (contact allergy) potential of a test material after repeated application to the skin of human subjects three studies were conducted using the formulations of the invention comprising 2-undecanone, soybean oil, polysorbate 20, sorbitan oleate, oil of lemon eucalyptus and denatured alcohol (e.g., test materials).
Test materials to be tested under occlusive conditions were placed on an 8-millimeter aluminum Finn Chamber® (Epitest Ltd. Oy, Tuusula, Finland) supported on Scanpor® Tape (Norgesplaster A/S, Kristiansand, Norway) or an 8 mm filter paper coated aluminum Finn Chamber® AQUA supported on a thin flexible transparent polyurethane rectangular film coated on one side with a medical grade acrylic adhesive, consistent with adhesive used in state-of the-art hypoallergenic surgical tapes or a 7 mm IQ-ULTRA® closed cell system which is made of additive-free polyethylene plastic foam with a filter paper incorporated (It is supplied in units of 10 chambers on a hypoallergenic nonwoven adhesive tape; the width of the tape is 52 mm and the length is 118 mm) or other equivalents. Materials to be tested under semi-occlusive conditions were placed on a test strip with a Rayon/Polypropylene pad or on a 7.5 mm filter paper disc affixed to a strip of hypoallergenic tape (Johnson & Johnson 1 inch First Aid Cloth Tape).
Test materials to be tested in an open patch were applied and rubbed directly onto the back of the subject. Approximately 0.02-0.05 mL (in case of liquids) and/or 0.02-0.05 gm (in case of solids) of the test material was used for the studies. Liquid test material was dispensed on a 7.5 mm paper disk, which fit in the Finn Chamber.
Subjects were requested to bathe or wash as usual before arrival at the facility. Patches containing the test material were then affixed directly to the skin of the intrascapular regions of the back, to the right or left of the midline and subjects were dismissed with instructions not to wet or expose the test area to direct sunlight. Patches remained in place for 48 hours after the first application. Subjects were instructed not to remove the patches prior to their 48 hour scheduled visit. Thereafter, subjects were instructed to remove patches 24 hours after application for the remainder of the study.
This procedure was repeated until a series of nine (9) consecutive, 24-hour exposures had been made three (3) times a week for three (3) consecutive weeks. Prior to each reapplication, the test sites were evaluated by trained laboratory personnel. Following a 10-14 day rest period a retest/challenge dose was applied once to a previously unexposed test site.
Test sites were evaluated by trained laboratory personnel 48 and 96 hours after application.
In the event of an adverse reaction, the area of erythema and edema were measured. Edema was estimated by the evaluation of the skin with respect to the contour of the unaffected normal skin. Subjects were instructed to report any delayed reactions that might occur after the final reading.
Scoring scale and definition of symbols shown below are based on the scoring scheme according to the International Contact Dermatitis Research Group scoring scale [Rietschel, R. L., Fowler, J. F., Ed., Fisher's Contact Dermatitis (fourth ed.). […]

Row | SMILES | duration of repellency (insect or tick) | subjects with a Grade 1 delayed reaction (skin of human subjects; Study I) | subjects with a Grade 1 reaction (skin of human subjects; Study I) | subjects with a Grade 1 reaction (skin of human subjects; Study II) | subjects with Grade 1 reaction (skin of human subjects; Study III) | subjects with Grade 2 reaction (skin of human subjects; Study III)
1 | CCCCCCCCCC(C)=O [Soybean 2-undecanone, 2-undecanone] | less than 30 min | – | – | – | – | –
2 | CCCCCCCCCCCCOS(=O)(=O)[O-].[Na+] [2.0% Sodium Lauryl Sulfate Solution, Sodium Lauryl Sulfate] | – | 4 subjects | 35 subjects | 10 subjects | Two | two
